# The source made the active and inactive calls.
# Assays:
# [1] = A549 cell cytotoxicity, dose response, cytotoxicity control, plate reader, cherry-pick, antagonist series (AID 743412); format: functional, cell-based
# [2] = Luminescence Cell-Based Dose Retest to Confirm Inhibitors of Cancer Stem Cells. [Related pubchem assays (depositor defined):AID2717, AID2721]; format: functional; conditions: Homo sapiens
# [3] = viability loss in HEK293 cells – cell-based, plate reader, cherry-picked samples, cytotoxicity control, dose response (AID 743446); format: functional
# [4] = A Cell Based Secondary Assay To Explore Cytotoxicity of Compounds that Sensitize Mycobacterium Tuberculosis to Beta-Lactam Antibiotics.; format: functional
# [5] = toxicity toward HepG2 liver cells – cell-based, plate reader, cherry-pick, antagonist series, cytotoxicity control, dose response (AID 743416); format: functional
# [6] = blockade of melanocortin 4 receptor signaling – cell-based, plate reader, cherry pick, counter-screen for LGR2 antagonist project, dose response (AID 743444); format: functional;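 note: transfected HEK 293 cells stimulated with alpha-MSH peptide; potency of inhibitors of the alpha-MSH evoked signal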
# [7] = blockers of bursicon-stimulated LGR2 cAMP reporter – cell-based, HEK293, CRE-luciferase reporter, cherry pick, set 2, dose response (AID 743343); format: functional;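 note: transfected cells were stimulated with diluted bursicon conditioned medium after compound addition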
# [8] = molecular target: T1, DNA repair and recombination protein RAD54-like (Homo sapiens, UniProt Q92698); assay: RAD54 Holliday junction migration blockers – biochemical, fluorescence, cherry-picked samples, dose series, confirmation (AID 651657); format: functional
# T1 sequence (Q92698 whole entry): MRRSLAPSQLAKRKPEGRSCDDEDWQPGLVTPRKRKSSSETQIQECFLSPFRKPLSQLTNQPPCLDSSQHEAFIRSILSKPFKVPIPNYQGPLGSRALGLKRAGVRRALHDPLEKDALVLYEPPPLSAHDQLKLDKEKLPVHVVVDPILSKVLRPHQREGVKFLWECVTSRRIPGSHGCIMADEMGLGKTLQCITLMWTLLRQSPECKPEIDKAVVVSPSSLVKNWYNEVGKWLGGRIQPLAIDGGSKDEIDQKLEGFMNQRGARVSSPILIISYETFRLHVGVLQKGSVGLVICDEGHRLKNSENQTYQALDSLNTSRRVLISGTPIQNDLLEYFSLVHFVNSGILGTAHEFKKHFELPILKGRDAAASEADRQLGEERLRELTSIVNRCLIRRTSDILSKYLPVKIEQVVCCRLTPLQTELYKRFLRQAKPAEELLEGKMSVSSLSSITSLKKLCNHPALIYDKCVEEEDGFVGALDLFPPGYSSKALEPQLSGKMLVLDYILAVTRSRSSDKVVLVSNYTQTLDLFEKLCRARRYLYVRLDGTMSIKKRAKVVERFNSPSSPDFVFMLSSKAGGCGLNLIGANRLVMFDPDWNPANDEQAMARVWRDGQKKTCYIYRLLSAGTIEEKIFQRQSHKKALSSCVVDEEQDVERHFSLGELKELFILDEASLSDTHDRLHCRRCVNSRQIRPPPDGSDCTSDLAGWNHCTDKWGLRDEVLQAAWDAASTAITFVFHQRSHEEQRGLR
# [9] = molecular target: T2, DNA repair protein RAD52 homolog (Homo sapiens, UniProt P43351); format: functional, biochemical
# T2 sequence (P43351 whole entry): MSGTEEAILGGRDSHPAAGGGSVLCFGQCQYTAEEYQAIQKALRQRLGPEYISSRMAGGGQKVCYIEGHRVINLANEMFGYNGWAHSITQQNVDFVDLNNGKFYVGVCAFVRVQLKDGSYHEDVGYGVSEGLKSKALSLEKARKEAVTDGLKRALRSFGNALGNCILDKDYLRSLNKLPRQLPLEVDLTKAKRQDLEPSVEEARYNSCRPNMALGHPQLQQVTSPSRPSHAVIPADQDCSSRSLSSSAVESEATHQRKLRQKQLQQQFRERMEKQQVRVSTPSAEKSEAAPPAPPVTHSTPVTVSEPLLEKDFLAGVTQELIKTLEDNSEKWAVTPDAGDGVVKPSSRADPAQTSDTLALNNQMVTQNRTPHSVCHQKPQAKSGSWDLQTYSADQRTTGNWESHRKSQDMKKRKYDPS
# [10] = A cytotoxicity screen of small molecule inhibitors of the PhoP region in Salmonella typhi identified in the primary screen. [Related pubchem assays: 1850, 1864, 1985 ]; format: functional
# Escherichia coli = assay: microbe, parasite or virus in culture
# [11] = molecular target: T3, Short transient receptor potential channel 4 (Mus musculus, UniProt Q9QUQ5); assay: calcium entry via TRPC4 opening agents – cell-based, HEK293 TRPC4/mu-opioid, Fluo-4 calcium, dose response (AID 434937); format: functional
# T3 sequence (Q9QUQ5 whole entry): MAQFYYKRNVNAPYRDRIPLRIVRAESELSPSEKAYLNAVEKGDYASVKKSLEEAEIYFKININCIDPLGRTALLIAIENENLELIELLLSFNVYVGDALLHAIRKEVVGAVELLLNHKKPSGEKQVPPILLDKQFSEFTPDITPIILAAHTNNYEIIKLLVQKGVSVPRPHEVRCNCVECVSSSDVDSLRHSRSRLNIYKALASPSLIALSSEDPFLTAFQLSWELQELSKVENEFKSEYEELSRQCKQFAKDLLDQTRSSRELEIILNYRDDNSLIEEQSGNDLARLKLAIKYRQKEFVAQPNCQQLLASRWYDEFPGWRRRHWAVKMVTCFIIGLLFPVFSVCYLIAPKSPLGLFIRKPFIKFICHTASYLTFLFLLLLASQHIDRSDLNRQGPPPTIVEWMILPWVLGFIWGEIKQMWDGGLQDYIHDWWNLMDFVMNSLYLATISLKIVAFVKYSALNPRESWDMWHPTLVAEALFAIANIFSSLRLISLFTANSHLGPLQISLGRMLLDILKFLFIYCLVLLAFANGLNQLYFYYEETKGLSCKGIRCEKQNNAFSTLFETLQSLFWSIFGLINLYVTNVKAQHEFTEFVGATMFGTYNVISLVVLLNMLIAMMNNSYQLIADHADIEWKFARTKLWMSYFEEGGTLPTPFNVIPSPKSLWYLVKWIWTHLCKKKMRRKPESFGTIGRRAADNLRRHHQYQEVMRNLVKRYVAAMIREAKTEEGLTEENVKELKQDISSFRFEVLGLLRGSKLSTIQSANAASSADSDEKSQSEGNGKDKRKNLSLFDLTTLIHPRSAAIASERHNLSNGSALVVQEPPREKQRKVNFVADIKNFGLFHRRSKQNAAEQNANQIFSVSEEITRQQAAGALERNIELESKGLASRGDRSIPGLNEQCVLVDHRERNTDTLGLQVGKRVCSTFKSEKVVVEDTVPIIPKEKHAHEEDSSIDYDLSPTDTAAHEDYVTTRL
# [12] = molecular target: T4, Replicative DNA helicase DnaB (Mycobacterium tuberculosis, UniProt P9WMR3); assay: DnaB intein splicing inhibitors, dose response, biochemical, cell-free fluorescence (AID 449749); format: functional
# T4 sequence (P9WMR3 whole entry): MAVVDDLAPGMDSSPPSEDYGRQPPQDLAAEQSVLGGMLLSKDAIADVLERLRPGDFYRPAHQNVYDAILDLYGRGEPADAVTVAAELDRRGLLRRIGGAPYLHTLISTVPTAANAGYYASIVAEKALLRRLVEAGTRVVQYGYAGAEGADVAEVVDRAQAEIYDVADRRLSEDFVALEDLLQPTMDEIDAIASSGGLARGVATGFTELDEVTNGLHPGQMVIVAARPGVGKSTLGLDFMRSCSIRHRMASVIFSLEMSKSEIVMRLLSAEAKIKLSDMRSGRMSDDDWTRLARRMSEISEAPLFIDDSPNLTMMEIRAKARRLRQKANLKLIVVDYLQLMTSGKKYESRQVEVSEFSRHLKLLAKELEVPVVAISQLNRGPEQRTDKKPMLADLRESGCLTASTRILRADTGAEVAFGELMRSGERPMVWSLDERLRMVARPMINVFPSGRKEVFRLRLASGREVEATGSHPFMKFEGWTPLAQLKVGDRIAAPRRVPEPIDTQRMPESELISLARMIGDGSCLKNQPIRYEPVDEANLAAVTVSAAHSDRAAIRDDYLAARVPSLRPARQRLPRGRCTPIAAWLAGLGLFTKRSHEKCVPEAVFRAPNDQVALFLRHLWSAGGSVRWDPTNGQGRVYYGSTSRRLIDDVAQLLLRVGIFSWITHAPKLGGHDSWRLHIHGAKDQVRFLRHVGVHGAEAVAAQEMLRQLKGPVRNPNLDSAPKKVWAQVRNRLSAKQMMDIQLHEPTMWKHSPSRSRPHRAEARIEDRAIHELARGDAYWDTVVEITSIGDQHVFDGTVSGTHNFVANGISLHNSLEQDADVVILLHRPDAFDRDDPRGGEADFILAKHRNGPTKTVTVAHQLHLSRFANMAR
# Protein RecA = molecular target: T5, Protein RecA (Mycobacterium tuberculosis, UniProt P9WHJ3); assay: Fluorescence Cell-Free Homogeneous Dose Retest to Identify Inhibitors of RecA-Intein Splicing Activity. [Related pubchem assays (depositor defined):AID2097, AID2223, AID489010, AID492950]; format: functional
# T5 sequence (P9WHJ3 whole entry): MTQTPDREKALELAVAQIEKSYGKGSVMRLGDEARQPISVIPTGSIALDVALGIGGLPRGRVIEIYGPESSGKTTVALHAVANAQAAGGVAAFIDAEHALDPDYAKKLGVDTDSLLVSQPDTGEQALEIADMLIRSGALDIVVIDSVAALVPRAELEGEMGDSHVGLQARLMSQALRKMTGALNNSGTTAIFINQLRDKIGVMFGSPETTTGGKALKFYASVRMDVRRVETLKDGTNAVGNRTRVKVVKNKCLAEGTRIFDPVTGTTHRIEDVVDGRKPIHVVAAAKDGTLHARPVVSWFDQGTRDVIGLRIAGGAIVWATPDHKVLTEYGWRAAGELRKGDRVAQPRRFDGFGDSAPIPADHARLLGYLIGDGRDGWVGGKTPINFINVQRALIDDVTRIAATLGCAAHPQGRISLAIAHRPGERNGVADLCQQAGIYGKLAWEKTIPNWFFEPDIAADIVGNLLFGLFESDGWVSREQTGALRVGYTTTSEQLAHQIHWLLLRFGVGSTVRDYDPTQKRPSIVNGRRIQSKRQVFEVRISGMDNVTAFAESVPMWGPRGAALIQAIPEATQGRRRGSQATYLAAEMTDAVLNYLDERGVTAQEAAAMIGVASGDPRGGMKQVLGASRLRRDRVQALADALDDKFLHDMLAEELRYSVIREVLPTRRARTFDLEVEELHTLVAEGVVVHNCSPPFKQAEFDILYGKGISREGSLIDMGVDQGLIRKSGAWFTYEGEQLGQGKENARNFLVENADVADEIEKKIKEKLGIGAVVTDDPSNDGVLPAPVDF
structure (smiles),measurement,setting,value
Cn1nnnc1Sc1ncnc2scc(-c3ccc(C(F)(F)F)cc3)c12,AC50,[1],7.67 µM (active)
same,AC50,[2],2.52 µM (active)
same,AC50,[3],8.08 µM (active)
same,CC50,[4],6.16 µM (active)
same,AC50,[5],8.47 µM (active)
same,AC50,[6],17.7 µM (active)
same,AC50,[7],14.8 µM (active)
CCCCN(CC)CCCNC(=O)c1cc2c(-c3ccc(OC)c(OC)c3)nn(C)c2s1,AC50,[8],9.31 µM (active)
same,AC50,[9],3.21 µM (active)
NC(=O)CN1CCN(CCN2C(=O)c3cccc4cccc(c34)C2=O)CC1,AC50,[8],13.3 µM (active)
same,AC50,[9],12.1 µM (active)
CCn1cc(C(=O)NCCCN(C)C)c(=O)c2cc(F)c(N3CCN(C)CC3)cc21,EC50,[10],> 50 µM (active)
Cc1ccc(NC(=O)c2ccc(Oc3ncccn3)cc2)cc1,AC50,Escherichia coli,37.9 µM (active)
C[C@@H](C(=O)NC1CCCC1)N1C(=O)N2CCc3c([nH]c4ccccc34)[C@@]2(C)C1=O,EC50,[10],> 50 µM (active)
COc1ccccc1-n1nc(C(=O)Nc2ccc3c(c2)OCO3)c2ccccc2c1=O,AC50,Escherichia coli,74.7 µM (active)
CC1CC(C)CN(CCCNC(=O)COc2cc(=O)n(C)c3ccccc23)C1 (centres undefined),EC50,[11],0.749 µM (active)
CC(=O)NCCn1c(SCc2ccccc2C)nc2ccccc2c1=O,AC50,[12],28.4 µM (active)
same,EC50,[10],> 50 µM (active)
same,EC50,Protein RecA,83.2 µM (active)

# — ChEMBL document CHEMBL1201862, “PubChem BioAssay data set” (2004)
